COC(=O)N(OC)c1ccccc1COc1ccn(-c2ccc(Cl)cc2)n1
solubility (mole fraction)
Settings | 283.15 K | 288.15 K | 293.15 K | 298.15 K | 303.15 K | 308.15 K
in cyclohexane | 0.000942 | 0.00148 | 0.00217 | 0.00311 | 0.00448 | 0.00609
in ethanol | 0.00458 | 0.00601 | 0.00866 | 0.0117 | 0.0184 | 0.0326
in isobutanol | 0.00283 | 0.00377 | 0.00527 | 0.00758 | 0.0115 | 0.0186
in isopropanol | 0.00248 | 0.00332 | 0.00481 | 0.00687 | 0.0102 | 0.0163
in n-butanol | 0.00534 | 0.00663 | 0.00916 | 0.0132 | 0.0214 | 0.0343

From BigSolDB 2.1
